From PubChem BioAssay AID328 (DTP/NCI, 2004)
Values joined by “and” are separate entries in the source; they are usually repeats but may differ in a detail not shown here. Equal values may be shown once. Toxic doses and inconclusive results are not listed. The calls were made as follows: active = survival T/C of 150% or more; inactive = T/C below 125% in these data.

System: BDF1 mice, P388 leukemia ip, median survival T/C
Experiment: NCI In Vivo Anticancer Drug Screen. Data for tumor model P388 Leukemia (intraperitoneal) in B6D2F1 (BDF1) mice
Details: endpoint: median survival time, higher = longer survival
In short: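 T/C = treated-group survival ÷ vehicle-control survival; tumour transplanted into mice before dosing.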

[1] = dose: 50.0 mg/kg/injection, schedule: Q01DX009 (ip), vehicle: saline
[2] = dose: 100.0 mg/kg/injection, schedule: Q01DX009 (ip), vehicle: saline
[3] = dose: 100.0 mg/kg/injection, schedule: Q04DX003 (ip), vehicle: saline
[4] = dose: 100.0 mg/kg/injection, schedule: Q01DX009 (ip), vehicle: water
[5] = dose: 100.0 mg/kg/injection, schedule: Q04DX003 (ip), vehicle: water
[6] = dose: 200.0 mg/kg/injection, schedule: Q01DX009 (ip), vehicle: water
[7] = dose: 200.0 mg/kg/injection, schedule: Q04DX003 (ip), vehicle: water
[8] = dose: 400.0 mg/kg/injection, schedule: Q01DX009 (ip), vehicle: water
[9] = dose: 100.0 mg/kg/injection, schedule: Q04DX003 (ip), vehicle: saline with Tween-80
[10] = dose: 200.0 mg/kg/injection, schedule: Q04DX003 (ip), vehicle: saline with Tween-80
[11] = dose: 400.0 mg/kg/injection, schedule: Q04DX003 (ip), vehicle: saline with Tween-80
[12] = dose: 100.0 mg/kg/injection, schedule: Q01DX009 (ip), vehicle: saline with Tween-80
[13] = dose: 200.0 mg/kg/injection, schedule: Q01DX009 (ip), vehicle: saline with Tween-80
[14] = dose: 25.0 mg/kg/injection, schedule: Q01DX009 (ip), vehicle: saline with Tween-80
[15] = dose: 50.0 mg/kg/injection, schedule: Q01DX009 (ip), vehicle: saline with Tween-80

Measured: T/C

NC1(CO)COC(c2ccccc2)OC1 (centres undefined)
inactive: dose: 25.0 mg/kg/injection, schedule: Q01DX009 (ip), vehicle: saline 100 % of control and 105 % of control | [1] 105 % of control and 118 % of control | dose: 50.0 mg/kg/injection, schedule: Q04DX003 (ip), vehicle: saline 97 % of control and 98 % of control and 109 % of control | [2] 100 % of control and 107 % of control | [3] 100 % of control and 102 % of control

BrCCC1(CCBr)CCCCC1
inactive: dose: 12.5 mg/kg/injection, schedule: Q01DX009 (ip), vehicle: water 113 % of control | dose: 25.0 mg/kg/injection, schedule: Q01DX009 (ip), vehicle: water 97 % of control | dose: 50.0 mg/kg/injection, schedule: Q01DX009 (ip), vehicle: water 96 % of control | dose: 50.0 mg/kg/injection, schedule: Q04DX003 (ip), vehicle: water 106 % of control | [4] 99 % of control | [5] 111 % of control | [6] 108 % of control | [7] 106 % of control | dose: 300.0 mg/kg/injection, schedule: Q04DX003 (ip), vehicle: water 107 % of control | [8] 118 % of control | dose: 400.0 mg/kg/injection, schedule: Q04DX003 (ip), vehicle: water 122 % of control | dose: 500.0 mg/kg/injection, schedule: Q04DX003 (ip), vehicle: water 109 % of control

CC(=O)CC(C)=O.CC(=O)CC(C)=O.O=N[O-].O=N[O-].[Co]
inactive: dose: 25.0 mg/kg/injection, schedule: Q04DX002 (ip), vehicle: saline with Tween-80 106 % of control | dose: 50.0 mg/kg/injection, schedule: Q04DX002 (ip), vehicle: saline with Tween-80 109 % of control

O=C(O)CS(=O)c1ccc2c3c(cccc13)C(=O)c1ccccc1-2 (centres undefined)
inactive: dose: 50.0 mg/kg/injection, schedule: Q01DX005 (ip), vehicle: saline with Tween-80 87 % of control | dose: 100.0 mg/kg/injection, schedule: Q01DX005 (ip), vehicle: saline with Tween-80 94 % of control | dose: 200.0 mg/kg/injection, schedule: Q01DX005 (ip), vehicle: saline with Tween-80 94 % of control

CC1=C2C(=C(CBr)OS1(=O)=O)C(=O)c1ccccc12
inactive: [9] 104 % of control | [10] 104 % of control | [11] 104 % of control

COC(=O)NC1CCCCC1I (centres undefined)
inactive: [12] 100 % of control | [9] 100 % of control | [13] 100 % of control | [10] 100 % of control | dose: 400.0 mg/kg/injection, schedule: Q01DX009 (ip), vehicle: saline with Tween-80 100 % of control | [11] 109 % of control

C[C@]12CCC(=O)C=C1CC[C@@H]1[C@@H]2C(=O)C[C@]2(C)C3=CC(=O)O[C@H]3C[C@@H]12
inactive: dose: 12.5 mg/kg/injection, schedule: Q01DX009 (ip), vehicle: Klucel (hydroxypropylcellulose) (HPC) 109 % of control and 110 % of control | dose: 12.5 mg/kg/injection, schedule: Q04DX003 (ip), vehicle: Klucel (hydroxypropylcellulose) (HPC) 109 % of control | dose: 25.0 mg/kg/injection, schedule: Q01DX009 (ip), vehicle: Klucel (hydroxypropylcellulose) (HPC) 118 % of control and 120 % of control | dose: 25.0 mg/kg/injection, schedule: Q04DX003 (ip), vehicle: Klucel (hydroxypropylcellulose) (HPC) 113 % of control | dose: 50.0 mg/kg/injection, schedule: Q01DX009 (ip), vehicle: Klucel (hydroxypropylcellulose) (HPC) 86 % of control and 115 % of control | dose: 50.0 mg/kg/injection, schedule: Q04DX003 (ip), vehicle: Klucel (hydroxypropylcellulose) (HPC) 122 % of control | dose: 100.0 mg/kg/injection, schedule: Q01DX009 (ip), vehicle: Klucel (hydroxypropylcellulose) (HPC) 90 % of control

CCc1ccccc1NC(=O)c1cccc(Cl)c1
inactive: [9] 95 % of control | [10] 100 % of control | [11] 104 % of control

O=C(O)COCC(F)(F)C(F)(F)C(F)(F)COCC(=O)O
inactive: [1] 90 % of control | [2] 110 % of control | [3] 100 % of control | dose: 200.0 mg/kg/injection, schedule: Q01DX009 (ip), vehicle: saline 110 % of control | dose: 200.0 mg/kg/injection, schedule: Q04DX003 (ip), vehicle: saline 122 % of control

N/N=C(\N)c1nn[nH]n1
inactive: [14] 96 % of control | [15] 96 % of control | [12] 110 % of control | [13] 86 % of control

O=C(c1ccccc1)C1CN(C2CCCCC2)C1c1ccccc1 (centres undefined)
inactive: [14] 102 % of control | [15] 90 % of control | [12] 102 % of control | [13] 100 % of control

CCS(=O)(=O)c1ncc2cnccn12
inactive: [4] 92 % of control | [5] 95 % of control | [6] 105 % of control | [7] 91 % of control | [8] 100 % of control

CCCCOB=O
inactive: [9] 109 % of control | [10] 100 % of control

COc1ccc2[nH]c3c(c2c1)CSc1ccccc1-3
inactive: dose: 100.0 mg/kg/injection, schedule: Q01DX001 (ip), vehicle: Klucel (hydroxypropylcellulose) (HPC) 91 % of control | dose: 200.0 mg/kg/injection, schedule: Q01DX001 (ip), vehicle: Klucel (hydroxypropylcellulose) (HPC) 108 % of control | dose: 400.0 mg/kg/injection, schedule: Q01DX001 (ip), vehicle: Klucel (hydroxypropylcellulose) (HPC) 108 % of control
